From paper PMC6982053, “GABAA Receptor Ligands Often Interact with Binding Sites in the Transmembrane Domain and in the Extracellular Domain—Can the Promiscuity Code Be Cracked?” (International Journal of Molecular Sciences, 2020) come the findings set out here.

This assay addresses T1, GABAA receptor α1β1 (β1 subunit) (Rattus norvegicus, UniProt P15431+P62813).
T1 construct: gene Gabrb1; rat α1β1 expressed in Xenopus laevis oocytes; with GABAA receptor α1 subunit
The assay is described as follows: two-electrode voltage clamp, modulation of GABA EC3-5 current (low efficacy). The format is cell-based. In general terms: In two-electrode clamp one electrode senses voltage and the other passes current.

T1 sequence (P15431 26-474): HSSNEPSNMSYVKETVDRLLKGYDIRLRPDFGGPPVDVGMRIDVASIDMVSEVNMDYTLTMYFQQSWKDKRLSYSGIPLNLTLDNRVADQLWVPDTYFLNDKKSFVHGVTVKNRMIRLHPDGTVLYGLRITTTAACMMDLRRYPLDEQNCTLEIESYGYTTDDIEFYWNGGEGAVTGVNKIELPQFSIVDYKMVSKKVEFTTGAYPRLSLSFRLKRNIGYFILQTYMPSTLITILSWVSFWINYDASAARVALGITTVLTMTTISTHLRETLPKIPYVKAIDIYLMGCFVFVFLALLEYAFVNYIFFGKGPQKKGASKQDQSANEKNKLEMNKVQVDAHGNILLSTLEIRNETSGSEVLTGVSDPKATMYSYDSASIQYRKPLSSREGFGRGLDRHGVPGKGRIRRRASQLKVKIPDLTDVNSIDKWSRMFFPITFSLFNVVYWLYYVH
T1 sequence (P62813 28-455): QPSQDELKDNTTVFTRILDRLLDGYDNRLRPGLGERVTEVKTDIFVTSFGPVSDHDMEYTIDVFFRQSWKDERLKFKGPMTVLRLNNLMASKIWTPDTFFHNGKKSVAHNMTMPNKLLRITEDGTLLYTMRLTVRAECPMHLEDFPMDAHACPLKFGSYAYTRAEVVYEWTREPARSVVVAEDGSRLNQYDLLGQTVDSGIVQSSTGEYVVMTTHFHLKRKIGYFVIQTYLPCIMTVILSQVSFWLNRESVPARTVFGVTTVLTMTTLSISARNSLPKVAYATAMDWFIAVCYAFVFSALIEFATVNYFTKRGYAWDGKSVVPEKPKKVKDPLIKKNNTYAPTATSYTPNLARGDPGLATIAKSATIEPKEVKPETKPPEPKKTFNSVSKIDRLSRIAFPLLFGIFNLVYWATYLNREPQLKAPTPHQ

A word on the EC50: it is the concentration needed to bring the measured effect to its halfway point. Turning to `O=C(O)c1[nH]c2ccc(Cl)cc2c1/N=N/c1ccc(Br)cc1` [MTI163, (E)-3-((4-bromophenyl)diazenyl)-5-chloro-1H-indole-2-carboxylic Acid], the EC50 is 7.65 µM.
